Patent US20230266302A1, “SYNTHESIS AND USE OF N-BENZYL SULFONAMIDES” (THE UNIVERSITY OF TULSA, priority 2020, published 2023)

Columns and labels:
Test in all cases: ATP level assay (CellTiter-Glo), percent of control
Format in all cases: cell-based
[1] = tested on: MCF10A (non-cancerous breast); details: two hour incubation; for activity at 100 µM: Homo sapiens, MCF-10A, 2 h, compound alone, control DMSO, read-out: POC (percent of control) MCF10A
MDA-MB (breast cancer) = details: two hour incubation; for activity at 100 µM: 2 h, compound alone, control DMSO, read-out: POC (percent of control) MDA-MB
[2] = tested on: BxPC3 (pancreatic cancer); details: two hour incubation; for activity at 100 µM: Homo sapiens, BXPC-3, 2 h, compound alone, control DMSO, read-out: POC (percent of control) BxPC3
MCF7 (breast cancer) = details: two hour incubation; for activity at 100 µM: Homo sapiens, MCF7, 2 h, compound alone, control DMSO, read-out: POC (percent of control) MCF7
HDF (normal cells) = details: two hour incubation; for activity at 100 µM: 2 h, compound alone, control DMSO, read-out: POC (percent of control) HDF
HeLa (cervical cancer) = details: two hour incubation; for activity at 100 µM: Homo sapiens, HeLa, 2 h, compound alone, control DMSO, read-out: POC (percent of control) HeLa
H293 (kidney cancer) = details: two hour incubation; for activity at 100 µM: 2 h, compound alone, control DMSO, read-out: POC (percent of control) H293
T47D (breast cancer) = details: two hour incubation; for activity at 100 µM: Homo sapiens, T47D, 2 h, compound alone, control DMSO, read-out: POC (percent of control) T47D
SkBr3 (breast cancer) = details: two hour incubation; for activity at 100 µM: Homo sapiens, SK-BR-3, 2 h, compound alone, control DMSO, read-out: POC (percent of control) SkBr3
PC3 (prostate cancer) = details: two hour incubation; for activity at 100 µM: 2 h, compound alone, control DMSO, read-out: POC (percent of control) PC3
NCI-H196 (lung cancer) = details: two hour incubation; for activity at 100 µM: NCI-H196, 2 h, compound alone, control DMSO, read-out: POC (percent of control) NCI-H196
[3] = compound 100 uM + 2DG (about 10-20 mM)
[4] = compound 100 uM + rotenone (approximately 1.25 μM)

## Cc1cccc2[nH]cc(CNS(=O)(=O)c3ccc(Cl)cc3)c12 [Compound 30, 4-chloro-N-[(4-methyl-1H-indol-3-yl)methyl]benzenesulfonamide]
[1]
  activity at 100 µM: 30%
[1]; [3]
  POC (percent of control) MCF10A: 8.4% of control
[1]; [4]
  POC (percent of control) MCF10A: 34.6% of control
MDA-MB (breast cancer)
  activity at 100 µM: 38.6%
MDA-MB (breast cancer); [3]
  POC (percent of control) MDA-MB: 41.5% of control
MDA-MB (breast cancer); [4]
  POC (percent of control) MDA-MB: 48.3% of control
[2]
  activity at 100 µM: 15.8%
[2]; [3]
  POC (percent of control) BxPC3: 6.3% of control
[2]; [4]
  POC (percent of control) BxPC3: 45.7% of control
MCF7 (breast cancer)
  activity at 100 µM: 37.4%
MCF7 (breast cancer); [3]
  POC (percent of control) MCF7: 11.3% of control
MCF7 (breast cancer); [4]
  POC (percent of control) MCF7: 36% of control
HDF (normal cells)
  activity at 100 µM: 28.2%
HDF (normal cells); [3]
  POC (percent of control) HDF: 28.4% of control
HDF (normal cells); [4]
  POC (percent of control) HDF: 66.2% of control
HeLa (cervical cancer)
  activity at 100 µM: 28.5%
HeLa (cervical cancer); [3]
  POC (percent of control) HeLa: 17.8% of control
HeLa (cervical cancer); [4]
  POC (percent of control) HeLa: 58.4% of control
H293 (kidney cancer)
  activity at 100 µM: 14%
H293 (kidney cancer); [3]
  POC (percent of control) H293: 12.8% of control
H293 (kidney cancer); [4]
  POC (percent of control) H293: 9.5% of control
T47D (breast cancer)
  activity at 100 µM: 16.1%
T47D (breast cancer); [3]
  POC (percent of control) T47D: 13.2% of control
T47D (breast cancer); [4]
  POC (percent of control) T47D: 28% of control
SkBr3 (breast cancer)
  activity at 100 µM: 64.1%
SkBr3 (breast cancer); [3]
  POC (percent of control) SkBr3: 41.3% of control
SkBr3 (breast cancer); [4]
  POC (percent of control) SkBr3: 58.2% of control
PC3 (prostate cancer)
  activity at 100 µM: 7.1%
PC3 (prostate cancer); [3]
  POC (percent of control) PC3: 10.6% of control
PC3 (prostate cancer); [4]
  POC (percent of control) PC3: 21.7% of control
NCI-H196 (lung cancer)
  activity at 100 µM: 48%
NCI-H196 (lung cancer); [3]
  POC (percent of control) NCI-H196: 18.7% of control
NCI-H196 (lung cancer); [4]
  POC (percent of control) NCI-H196: 18.4% of control

## COc1ncccc1CNS(=O)(=O)c1ccc(C)cc1 [Compound 12, N-[(2-methoxypyridin-3-yl)methyl]-4-methylbenzenesulfonamide]
[1]
  activity at 100 µM: 98.6%
[1]; [3]
  POC (percent of control) MCF10A: 88.1% of control
[1]; [4]
  POC (percent of control) MCF10A: 86.1% of control
MDA-MB (breast cancer)
  activity at 100 µM: 87.2%
MDA-MB (breast cancer); [3]
  POC (percent of control) MDA-MB: 83.9% of control
MDA-MB (breast cancer); [4]
  POC (percent of control) MDA-MB: 105.7% of control
[2]
  activity at 100 µM: 79.8%
[2]; [3]
  POC (percent of control) BxPC3: 57% of control
[2]; [4]
  POC (percent of control) BxPC3: 61% of control
MCF7 (breast cancer)
  activity at 100 µM: 97.3%
MCF7 (breast cancer); [3]
  POC (percent of control) MCF7: 90.8% of control
MCF7 (breast cancer); [4]
  POC (percent of control) MCF7: 92.1% of control
HDF (normal cells)
  activity at 100 µM: 77.8%
HDF (normal cells); [3]
  POC (percent of control) HDF: 90.9% of control
HDF (normal cells); [4]
  POC (percent of control) HDF: 70.4% of control
HeLa (cervical cancer)
  activity at 100 µM: 98%
HeLa (cervical cancer); [3]
  POC (percent of control) HeLa: 78.5% of control
HeLa (cervical cancer); [4]
  POC (percent of control) HeLa: 87.6% of control
H293 (kidney cancer)
  activity at 100 µM: 94.4%
H293 (kidney cancer); [3]
  POC (percent of control) H293: 85% of control
H293 (kidney cancer); [4]
  POC (percent of control) H293: 74.9% of control
T47D (breast cancer)
  activity at 100 µM: 59.8%
T47D (breast cancer); [3]
  POC (percent of control) T47D: 58.1% of control
T47D (breast cancer); [4]
  POC (percent of control) T47D: 95.2% of control
SkBr3 (breast cancer)
  activity at 100 µM: 91.6%
SkBr3 (breast cancer); [3]
  POC (percent of control) SkBr3: 73.5% of control
SkBr3 (breast cancer); [4]
  POC (percent of control) SkBr3: 85.1% of control
PC3 (prostate cancer)
  activity at 100 µM: 82.1%
PC3 (prostate cancer); [3]
  POC (percent of control) PC3: 89.9% of control
PC3 (prostate cancer); [4]
  POC (percent of control) PC3: 80.3% of control
NCI-H196 (lung cancer)
  activity at 100 µM: 83.5%
NCI-H196 (lung cancer); [3]
  POC (percent of control) NCI-H196: 117% of control
NCI-H196 (lung cancer); [4]
  POC (percent of control) NCI-H196: 81.8% of control

## O=S(=O)(NCc1c[nH]c2ccccc12)c1ccccc1 [Compound 3, N-[(1H-indol-3-yl)methyl]benzenesulfonamide]
[1]
  activity at 100 µM: 62.5%
[1]; [3]
  POC (percent of control) MCF10A: 72.7% of control
[1]; [4]
  POC (percent of control) MCF10A: 110.5% of control
MDA-MB (breast cancer)
  activity at 100 µM: 92.4%
MDA-MB (breast cancer); [3]
  POC (percent of control) MDA-MB: 81.8% of control
MDA-MB (breast cancer); [4]
  POC (percent of control) MDA-MB: 102.7% of control
[2]
  activity at 100 µM: 96.8%
[2]; [4]
  POC (percent of control) BxPC3: 84.5% of control
MCF7 (breast cancer)
  activity at 100 µM: 105%
MCF7 (breast cancer); [3]
  POC (percent of control) MCF7: 74.5% of control
MCF7 (breast cancer); [4]
  POC (percent of control) MCF7: 97.3% of control
HDF (normal cells)
  activity at 100 µM: 84.5%
HDF (normal cells); [3]
  POC (percent of control) HDF: 72.7% of control
HDF (normal cells); [4]
  POC (percent of control) HDF: 91.9% of control
HeLa (cervical cancer)
  activity at 100 µM: 99.2%
HeLa (cervical cancer); [3]
  POC (percent of control) HeLa: 67.6% of control
HeLa (cervical cancer); [4]
  POC (percent of control) HeLa: 85.5% of control
H293 (kidney cancer)
  activity at 100 µM: 74.3%
H293 (kidney cancer); [3]
  POC (percent of control) H293: 42.8% of control
H293 (kidney cancer); [4]
  POC (percent of control) H293: 69.3% of control
T47D (breast cancer)
  activity at 100 µM: 34.9%
T47D (breast cancer); [3]
  POC (percent of control) T47D: 37.1% of control
T47D (breast cancer); [4]
  POC (percent of control) T47D: 58.7% of control
SkBr3 (breast cancer)
  activity at 100 µM: 72.8%
SkBr3 (breast cancer); [3]
  POC (percent of control) SkBr3: 79.4% of control
SkBr3 (breast cancer); [4]
  POC (percent of control) SkBr3: 97.1% of control
PC3 (prostate cancer)
  activity at 100 µM: 85%
PC3 (prostate cancer); [3]
  POC (percent of control) PC3: 59.4% of control
PC3 (prostate cancer); [4]
  POC (percent of control) PC3: 65.1% of control
NCI-H196 (lung cancer)
  activity at 100 µM: 89.6%
NCI-H196 (lung cancer); [3]
  POC (percent of control) NCI-H196: 55% of control
NCI-H196 (lung cancer); [4]
  POC (percent of control) NCI-H196: 89.2% of control

## Cc1ccc(S(=O)(=O)NCc2coc(C)n2)cc1 [Compound 21, 4-methyl-N-[(2-methyl-1,3-oxazol-4-yl)methyl]benzenesulfonamide]
[1]
  activity at 100 µM: 108%
[1]; [3]
  POC (percent of control) MCF10A: 92.8% of control
[1]; [4]
  POC (percent of control) MCF10A: 120% of control
MDA-MB (breast cancer)
  activity at 100 µM: 101%
MDA-MB (breast cancer); [3]
  POC (percent of control) MDA-MB: 100.7% of control
MDA-MB (breast cancer); [4]
  POC (percent of control) MDA-MB: 121.5% of control
[2]
  activity at 100 µM: 112%
[2]; [3]
  POC (percent of control) BxPC3: 106.8% of control
[2]; [4]
  POC (percent of control) BxPC3: 114.8% of control
MCF7 (breast cancer)
  activity at 100 µM: 189%
MCF7 (breast cancer); [3]
  POC (percent of control) MCF7: 121.1% of control
MCF7 (breast cancer); [4]
  POC (percent of control) MCF7: 111% of control
HDF (normal cells)
  activity at 100 µM: 87.9%
HDF (normal cells); [3]
  POC (percent of control) HDF: 97.4% of control
HDF (normal cells); [4]
  POC (percent of control) HDF: 113.6% of control
HeLa (cervical cancer)
  activity at 100 µM: 101%
HeLa (cervical cancer); [3]
  POC (percent of control) HeLa: 105.8% of control
HeLa (cervical cancer); [4]
  POC (percent of control) HeLa: 109.4% of control
H293 (kidney cancer)
  activity at 100 µM: 115%
H293 (kidney cancer); [3]
  POC (percent of control) H293: 87.8% of control
H293 (kidney cancer); [4]
  POC (percent of control) H293: 87% of control
T47D (breast cancer)
  activity at 100 µM: 88.7%
T47D (breast cancer); [3]
  POC (percent of control) T47D: 99.4% of control
T47D (breast cancer); [4]
  POC (percent of control) T47D: 86.4% of control
SkBr3 (breast cancer)
  activity at 100 µM: 102%
SkBr3 (breast cancer); [3]
  POC (percent of control) SkBr3: 108.5% of control
SkBr3 (breast cancer); [4]
  POC (percent of control) SkBr3: 106.9% of control
PC3 (prostate cancer)
  activity at 100 µM: 93.3%
PC3 (prostate cancer); [3]
  POC (percent of control) PC3: 131.7% of control
PC3 (prostate cancer); [4]
  POC (percent of control) PC3: 110.9% of control
NCI-H196 (lung cancer)
  activity at 100 µM: 108%
NCI-H196 (lung cancer); [3]
  POC (percent of control) NCI-H196: 107.4% of control
NCI-H196 (lung cancer); [4]
  POC (percent of control) NCI-H196: 130.5% of control
